The source of these data is patent publication US20260276643A1, “METHODS FOR PREDICTING AND IMPROVING THERAPEUTIC EFFICACY OF CANCER TREATMENTS AND METHODS FOR CANCER PROGNOSIS” (Università degli studi di Verona, priority 2023, published 2026).

Like-named read-outs stand apart in the source and are kept apart here.

The subject of assay [1] is CLDN18.2 expression in cancer cells. The conditions noted are these: WO2013/174510; Tureci 2019; cited from earlier work.
In assay [2] the test system is CLDN18 expression in DANG cells. Nature of the assay: CLDN18 exogenous regulation in vitro: CLDN18 staining of treated DANG cells. Format: cell-based, human.

In the case of `O=c1[nH]cc(F)c(=O)[nH]1` [5-fluorouracil, 5-fluoro-1H-pyrimidine-2,4-dione], in assay [1], the “CLDN18.2 expression levels in cancer cells” value (shortened to “CLDN18.2 expression levels”) is recorded as “upregulate existing CLDN18.2 expression levels in cancer cells”.

Consider `Nc1ccn([C@@H]2O[C@H](CO)[C@@H](O)C2(F)F)c(=O)n1` [Gemcitabine, 4-amino-1-(2-deoxy-2,2-difluoro-β-D-erythro-pentofuranosyl)pyrimidin-2(1H)-one], for which, in assay [1], the “CLDN18.2 expression levels” value was “upregulate existing CLDN18.2 expression levels in cancer cells”. Besides, in assay [2] (DANG cells, 48 hours treatment, FIG. 7), the “CLDN18 expression (mean fluorescence intensity, fold change on untreated)” value is “induced CLDN18 expression in DANG cells”.

Take `CCCCCCCCCCCCCC(=O)O[C@@H]1[C@@H](C)[C@@]2(O)[C@@H](C=C(CO)C[C@]3(O)C(=O)C(C)=C[C@@H]23)[C@@H]2C(C)(C)[C@]12OC(C)=O` [PMA, Phorbol 12-myristate 13-acetate]: in assay [2], the “CLDN18 expression (mean fluorescence intensity, fold change on untreated)” value is “induced CLDN18 expression in DANG cells” and the “CLDN18 expression (percentage of CLDN18+ cells)” value is “induced CLDN18 expression in DANG cells”.

Take `NC(=O)Nc1sc(-c2ccc(F)cc2)cc1C(N)=O` [TPCA-1]: the “CLDN18 expression (percentage of CLDN18+ cells)” value in assay [2] was “induced CLDN18 expression in DANG cells”.

Regarding `O=C1[O][Pt]2([NH][C@@H]3CCCC[C@H]3[NH]2)[O]C1=O` [oxaliplatin, [(1R,2R)-cyclohexane-1,2-diamine](ethanedioato-O,O′)platinum(II)], in assay [1], the “CLDN18.2 expression levels” value was “upregulate existing CLDN18.2 expression levels in cancer cells”.

Take Verteporfin: in assay [2] (DANG cells, extended experiment, FIG. 11), the “CLDN18 expression (percentage of CLDN18+ cells)” value was “induced CLDN18 expression in DANG cells”.
